Assay results reported in patent US5750754A, “Heterocyclic compounds” (Zeneca Limited, priority 1993, dated 1998).
Counter-ions that a name gives are not always drawn.

Key:
[1] = molecular target: T1, human, citrated, platelet-rich plasma (Homo sapiens, UniProt P05106+P08514); assay: Test (a): inhibition of ADP stimulated platelet aggregation (Born); type: cell-based; conditions: ADP induced aggregation of human platelet-rich plasma; read-out: Test (a): pA2 value indicating potency of platelet aggregation inhibition (converted)
T1 construct: aggregating human, citrated, platelet-rich plasma; endogenous in cells; host or cells: human platelets in citrated platelet-rich plasma
In short: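 ADP added to human citrated platelet-rich plasma to build aggregation dose-response curves, repeated with increasing test compound (generally 10-^5 M to 10-^10 M). pA2 derived from the 50% response value for ADP with vs. without compound, averaged over several concentrations.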

[2] = molecular target: T2, purified human platelet fibrinogen receptor (GPIIb/IIIa) (Homo sapiens, UniProt P05106+P08514); assay: Test (b): GPIIb/IIIa ELISA, inhibition of biotinylated fibrinogen binding; conditions: purified human platelet GPIIb/IIIa, ELISA; read-out: Test (b): pIC50 (-log(IC50)), 50% inhibition of biotinylated fibrinogen binding to GPIIb/IIIa (converted)
T2 construct: is isolated from human platelet lysates; from tissue
In short: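 GPIIb/IIIa affinity-purified from human platelet lysates was coated on plates, blocked, then incubated 2 h at 30 °C with biotinylated fibrinogen ([…]) plus compound. Bound fibrinogen detected via streptavidin/biotinylated HRP and TMB, OD at 650 nm; pIC50 for 50% binding inhibition.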

T2 sequence (P08514 32-887 limits assumed): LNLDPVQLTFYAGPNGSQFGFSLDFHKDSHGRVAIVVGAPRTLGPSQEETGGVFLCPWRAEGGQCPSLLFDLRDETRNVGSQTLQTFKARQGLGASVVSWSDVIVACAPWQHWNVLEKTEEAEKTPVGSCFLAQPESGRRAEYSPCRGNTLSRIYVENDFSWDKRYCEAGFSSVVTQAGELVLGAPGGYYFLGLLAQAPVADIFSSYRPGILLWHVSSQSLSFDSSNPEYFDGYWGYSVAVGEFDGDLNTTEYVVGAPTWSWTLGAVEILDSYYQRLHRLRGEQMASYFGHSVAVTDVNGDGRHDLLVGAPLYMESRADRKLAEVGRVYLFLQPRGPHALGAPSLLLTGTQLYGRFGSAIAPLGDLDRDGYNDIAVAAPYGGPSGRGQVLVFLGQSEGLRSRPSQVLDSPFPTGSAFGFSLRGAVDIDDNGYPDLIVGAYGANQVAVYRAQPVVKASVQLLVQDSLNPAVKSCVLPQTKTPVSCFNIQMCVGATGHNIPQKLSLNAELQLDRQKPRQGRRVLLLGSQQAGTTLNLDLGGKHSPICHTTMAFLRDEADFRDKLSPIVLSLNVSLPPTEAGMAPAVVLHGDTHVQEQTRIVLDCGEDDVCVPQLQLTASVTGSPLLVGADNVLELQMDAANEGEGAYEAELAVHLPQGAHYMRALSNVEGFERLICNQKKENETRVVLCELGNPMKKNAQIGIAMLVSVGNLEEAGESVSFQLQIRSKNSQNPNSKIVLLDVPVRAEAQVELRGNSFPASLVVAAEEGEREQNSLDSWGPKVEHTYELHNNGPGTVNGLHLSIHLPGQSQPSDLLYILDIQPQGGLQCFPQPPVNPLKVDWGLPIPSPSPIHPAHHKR
T2 sequence (P08514 891-1039 limits assumed): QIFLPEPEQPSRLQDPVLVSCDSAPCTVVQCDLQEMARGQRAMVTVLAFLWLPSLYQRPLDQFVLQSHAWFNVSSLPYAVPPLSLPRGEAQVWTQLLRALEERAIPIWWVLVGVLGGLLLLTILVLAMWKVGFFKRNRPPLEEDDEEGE
T2 sequence (P05106 27-788): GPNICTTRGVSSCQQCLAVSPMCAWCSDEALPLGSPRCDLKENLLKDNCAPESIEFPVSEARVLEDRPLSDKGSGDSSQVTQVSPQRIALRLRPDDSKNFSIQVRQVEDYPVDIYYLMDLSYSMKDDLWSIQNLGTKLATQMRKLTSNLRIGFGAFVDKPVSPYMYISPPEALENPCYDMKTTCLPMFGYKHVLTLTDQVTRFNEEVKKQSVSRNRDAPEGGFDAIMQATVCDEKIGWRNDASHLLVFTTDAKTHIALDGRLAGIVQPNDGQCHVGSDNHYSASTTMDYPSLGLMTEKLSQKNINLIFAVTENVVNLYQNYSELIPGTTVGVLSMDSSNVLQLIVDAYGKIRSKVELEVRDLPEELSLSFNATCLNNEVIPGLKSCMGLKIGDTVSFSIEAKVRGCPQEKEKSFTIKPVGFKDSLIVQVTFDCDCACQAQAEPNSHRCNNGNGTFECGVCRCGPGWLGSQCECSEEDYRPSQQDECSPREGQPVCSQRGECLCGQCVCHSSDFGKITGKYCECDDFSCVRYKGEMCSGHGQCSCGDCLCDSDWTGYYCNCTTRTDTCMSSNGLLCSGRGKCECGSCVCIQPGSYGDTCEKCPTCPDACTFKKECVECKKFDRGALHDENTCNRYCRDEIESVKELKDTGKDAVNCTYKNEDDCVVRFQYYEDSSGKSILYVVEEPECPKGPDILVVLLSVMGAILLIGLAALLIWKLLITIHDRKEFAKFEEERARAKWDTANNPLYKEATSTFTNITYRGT
T1 sequence (P08514 32-887 limits assumed): as the sequence (P08514 32-887 limits assumed) above
T1 sequence (P08514 891-1039 limits assumed): as the sequence (P08514 891-1039 limits assumed) above
T1 sequence (P05106 27-788): as the sequence (P05106 27-788) above

Compound | Kb [1] | IC50 [2]
CCCCS(=O)(=O)NCc1ccc(NC(=O)C2CCN(c3ccncc3)CC2)cc1 [Example 170, N-[4-[4-[1-(4-Pyridyl)piperidin-4-yl]carboxamidophenyl]-methyl]-1-butanesulphonamide] | 15800 nM | > 100000 nM
COC(=O)COc1ccc(CCN2CCN(c3ccncc3)CC2)cc1 [Example 147, Methyl 4-[2-[4-(4-pyridyl)piperazin-1-yl]ethyl]phenoxyacetate] | 398 nM | 631 nM
COC(=O)C(N)CCOc1ccc(N2CCN(c3ccncc3)CC2)cc1 (racemic) [Example 213, RS Methyl 2-amino-4-[4-[4-(4-pyridyl)piperazin-1-yl]phenoxy]butyrate] | 200 nM | 501 nM
CC(C)(Oc1ccc(C(=O)CN2CCN(c3ccncc3)CC2)cc1)C(=O)O [Example 135, 2-[4-[2-[4-(4-Pyridyl)piperazin-1-yl]acetyl]phenoxy]isobutyric acid, dihydrobromide] | 31600 nM | > 100000 nM
CCCCS(=O)(=O)N[C@@H](Cc1ccc(OC2CCN(c3ccncc3)CC2)cc1)C(=O)O [Example 38, 2-S-(n-Butylsulphonylamino)-3-[4-[1-(4-pyridyl)piperidin-4-yl]oxyphenyl]propionic acid] | 31.6 nM | 2 nM
CCCCS(=O)(=O)N[C@@H](Cc1ccc(OCCCC2CCN(c3ccncc3)CC2)cc1)C(=O)O [Example 82, 2-S-(n-Butylsulphonylamino)-3-[4-[3-[1-(4-pyridyl)piperidin-4-yl]propoxy]phenyl]propionic acid] | 501 nM | 12.6 nM
COC(=O)COc1ccc(NC(=O)C2CCN(c3ccncc3)CC2)cc1 [Example 163, Methyl 4-[[1-(4-pyridyl)piperidin-4-yl]carboxamido]phenoxyacetate, hydrochloride] | 398 nM | 251 nM
Cc1cc(N2CCN(CC(=O)c3ccc(OCC(=O)O)cc3)CC2)ccn1 [Example 152, 4-[2-[4-(2-Methylpyrid-4-yl)piperazin-1-yl]acetyl]phenoxyacetic acid, dihydrobromide] | 100 nM | 100 nM
COC(=O)C(Cc1ccc(OCc2cnccc2N(C)C)cc1)NC(=O)OCc1ccccc1 (centres unmarked) [Example 114, Methyl3-(4-dimethylamninopyrid-3-yl)methoxyphenoxyl-2-benzyloxycarbonylaminopropanoate] | > 100000 nM | 2510 nM
CCCCS(=O)(=O)N[C@@H](Cc1ccc(OCCCCC2CCN(c3ccncc3)CC2)cc1)C(=O)O [Example 84, 2-S-(n-Butylsulphonylamino)-3-[4-[4-[1-(4-pyridyl)piperidin-4-yl]butoxy]phenyl]propionic acid] | 63.1 nM | 20 nM
O=C(O)COc1ccc(C(=O)CN2CCN(c3ccnc4c3CCCC4)CC2)cc1 [Example 46, 4-[2-[4-(5,6,7,8-Tetrahydro-4-quinolinyl)piperazin-1-yl]acetyl]phenoxyacetic acid] | 1000 nM | 25.1 nM
O=C(O)Cc1ccc(C(=O)CN2CCN(c3ccncc3)CC2)cc1 [Example 15, 4-[2-[4-(4-Pyridyl)piperazin-1-yl]acetyl]phenylacetic acid, trifluoroacetate salt] | 2510 nM | 1260 nM
O=C(O)COc1ccc2c(CN3CCN(c4ccncc4)CC3)cccc2c1 [Example 76, 5-[[4-(4-Pyridyl)piperazin-1-yl]methylene]naphth-2-yloxyacetic acid] | 31600 nM | 1260 nM
O=C(O)CCc1ccc(C(=O)CN2CCN(c3ccncc3)CC2)cc1 [Example 12, 3-[4-[2-[4-(4-Pyridyl)piperazin-1-yl]acetyl]phenyl]propionic acid] | 501 nM | 63.1 nM
O=C(O)CCCCOc1ccc(N2CCN(c3ccncc3)CC2)cc1 [Example 53, 5-[4-[4-(4-Pyridyl)piperazin-1-yl]phenoxy]pentanoic acid] | 1580 nM | 1260 nM
O=C(O)COc1ccc(C(=O)CN2CCN(c3ccncc3)CC2)c(OCC(=O)O)c1 [Example 129, 2,2'-[4-[2-[4-(4-Pyridyl)piperazin-1-yl]acetyl]phenylene-1,3-dioxy]diaceticacid, dihydrochloride] | 12.6 nM | 316 nM

Continued, values first:

Kb [1] | IC50 [2] | Compound
126 nM | 2510 nM | CCOC(=O)COc1ccc(C(=O)CN2CCN(c3ccncc3)CC2)cc1 [Example 136, Ethyl-4-[2-[4-(4-pyridyl)piperazin-1-yl]acetyl]phenoxyacetate]
39800 nM | 3980 nM | CCCCS(=O)(=O)N[C@H](Cc1ccc(OCC2CCN(c3ccncc3)CC2)cc1)C(=O)OC [Example 100, Methyl 2-R-(n-butylsulphonylamino)-3-[4-[1-(4-pyridyl)piperidin-4-yl]methoxyphenyl]propionate]
251 nM | 200 nM | O=C(O)COc1ccc(C(=O)NC2CCN(c3ccncc3)CC2)cc1 [Example 167, 4-[[1-(4-Pyridyl)piperidin-4-yl]aminocarbonyl]phenoxyacetic acid dihydrochloride]
6310 nM | 501 nM | O=C(O)c1ccc(Oc2ccc(N3CCN(c4ccncc4)CC3)cc2)nc1 [Example 233, 6-[4-[4-(4-Pyridyl)piperazin-1yl]phenoxy]pyridine-3-carboxylic acid]
63100 nM | 15800 nM | COC(=O)CCNC(=O)CCCCN1CCN(c2ccncc2)CC1 [Example 197, Methyl 3-[5-[4-(4-pyridyl)piperazine-1-yl]petanoyl]aminopropionate]
20000 nM | 3160 nM | CCOC(=O)CCCOc1cccc(N2CCN(c3ccncc3)CC2)c1 [Example 226, Ethyl 3-[4-(4-pyridyl)piperazin-1-yl]phenoxybutyrate]
158 nM | 15.8 nM | Cc1cc(OCC(=O)O)ccc1C(=O)CN1CCN(c2ccncc2)CC1 [Example 125, 4-[2-[4-(4-Pyridyl)piperazin-1-yl]acetyl]-3-methylphenoxyacetic acid, dihydrochloride]
50100 nM | > 100000 nM | COCCNC(=O)CCCOc1ccc(N2CCN(c3ccncc3)CC2)cc1 [Example 201, N-2-Methoxyethyl-4-[4-[4-(4-pyridyl)piperazine-1-yl]phenoxy]butyramide, trifluoroacetate]
31600 nM | > 100000 nM | COCCNC(=O)COC1CCN(C(=O)CN2CCN(c3ccncc3)CC2)CC1 [Example 107, N-2-Methoxyethyl 1-[2-[4-(4-pyridyl)piperazin-1-yl]acetyl]-piperidin-4-yloxyacetamide]
794 nM | 251 nM | O=C(O)COc1ccc(C(=O)CN2CCN(c3ccncc3)CC2)c2ccccc12 [Example 124, 4-[2-[4-(4-Pyridyl)piperazin-1-yl]acetyl]naphthoxyacetic acid, dihydrochloride]
126 nM | 316 nM | COC(=O)COc1ccc(NC(=O)N2CCN(c3ccncc3)CC2)cc1 [Example 63, Methyl 4-[[4-(4-pyridyl)piperazin-1-yl]carboxamido]phenoxy acetate]
1580 nM | 501 nM | COC(=O)C(Oc1ccc(C(=O)CN2CCN(c3ccncc3)CC2)cc1)C(=O)OC [Example 140, Dimethyl 4-[2-[4-(4-pyridyl)piperazin-1-yl]acetyl]phenoxymalonate]
316 nM | 79.4 nM | COC(=O)COc1ccc(OCC2CCN(c3ccncc3)CC2)cc1 [Example 157, Methyl 4-[1-(4-pyridyl)piperidin-4-yl]methoxyphenoxyacetate]
7940 nM | 2510 nM | CCOC(=O)C1CCN(C(=O)CN2CCN(c3ccncc3)CC2)CC1 [Example 27, Ethyl 1-[2-[4-(4-pyridyl)piperazin-1-yl]acetyl]piperidin-4-carboxylate]
794 nM | 31.6 nM | O=C(O)C1CCCC(Oc2ccc(N3CCN(c4ccncc4)CC3)cc2)C1 (centres unmarked) [Example 237, 3-[4-[4-(Pyridyl)piperazin-1-yl]phenoxy]cyclohexane carboxylic acid]
398 nM | 126 nM | CCCCS(=O)(=O)N[C@@H](Cc1ccc(OCC2CCN(c3ccncc3)CC2)cc1)C(=O)OC [Example 33, Methyl 2-S-(n-butylsulphonylamino)-3-[4-[1-(4-pyridyl)piperidin-4-yl]methoxyphenyl]propionate]
39800 nM | 3160 nM | COC(=O)COc1ccc(C(=O)CN2CCN(c3ccnc4ccccc34)CC2)cc1 [Example 43, Methyl 4-[2-[4-(4-quinolinyl)piperazin-1-yl]acetyl]phenoxyacetate]
7940 nM | 20000 nM | CS(=O)(=O)NCc1ccc(NC(=O)C2CCN(c3ccncc3)CC2)cc1 [Example 182]
3160 nM | 39800 nM | COC(=O)CC(NC(=O)c1ccc(N2CCN(c3ccncc3)CC2)cc1)c1ccccc1 (centres unmarked) [Example 58, Methyl 3-[4-[4-(4-pyridyl)piperazin-1-yl]benzamido]-3-phenylpropionate]
316 nM | 316 nM | O=C(O)COc1ccc(CC(=O)N2CCN(c3ccncc3)CC2)cc1 [Example 150, 4-[2-[4-(4-Pyridyl)piperazin-1-yl]carbonylmethyl]phenoxyacetic acid, dihydrochloride]
158 nM | 501 nM | COc1cc(OCC(=O)O)ccc1C(=O)CN1CCN(c2ccncc2)CC1 [Example 128, 4-[2-[4-(4-Pyridyl)piperazin-1-yl]acetyl]-3-methoxy-phenoxyacetic acid, dihydrochloride]
